# Where two headings read alike, the source gives them in different places.
# What was measured:
# [1] = system: K562 acid phosphatase; assay: Km of substrate for acid phosphatase, K562; type: biochemical; conditions: K562 suspension, human chronic myelogenous leukemia; BBTP 1 mM, 1 h at RT
# Excerpt: (§1) Km of substrate for acid phosphatase for a variety of cells
# [2] = system: CHO-K1 acid phosphatase; assay: acid phosphatase assay of CHO-K1 with AttoPhos/BBTP; type: biochemical, Chinese hamster; conditions: for Fluorescence: A/2 plate
# Experimental: (§2) To establish a relation between acid phosphatase activity and cell numbers, cells were seeded at various densities (50-20,000) onto replicate plastic 96-well plates or half area 96-well microtiter plates (Costar) and incubated at 37° C. for 3.5 hours to allow attachment. Cell number was then assessed by measuring intracellular acid phosphatase with three different substrates: p-nitrophenyl phosphate, which has a calorimetric endpoint, 4-methylumbelliferyl phosphate (MUP) and 2'-[2-benzthiazoyl]-6'-hydoxybenzothiazole phosphate bis-[2-amino-2-methyl-13-propanediol] salt (AttoPhos™), which have fluorometric endpoints.
# (§3) Plates were incubated for 1 hour at room temperature and the reaction was terminated with 50 μL of stop solution (240 mM diethanolamine, pH 10). Fluorescence was measured at excitation wavelength of 450 nm and emission wavelength of 580 nm using a fluorimeter (Cytofluor 4000, PerSeptive Biosystems). Nonenzymatic hydrolysis was determined in wells containing no cells and subtracted from the experimental values. Since the background is subtracted, in general, the actual signal to noise ratios at lower cell numbers is better than what presented in the table.
# [3] = system: HL-60 acid phosphatase; assay: Km of substrate for acid phosphatase, HL-60; type: biochemical; conditions: HL-60 suspension, human promyelocytic leukemia; BBTP 1 mM, 1 h at RT
# Excerpt: as §1
# [4] = system: HUVEC intracellular acid phosphatase; type: biochemical, human
# [5] = system: Alkaline phosphatase; conditions: reported in U.S. Pat. No. 5,424,440; read-out: Km of the substrate with alkaline phosphatase; cited from earlier work
# [6] = system: 3T3 cells acid phosphatase; assay: acid phosphatase assay of 3T3 cells with AttoPhos/BBTP; type: biochemical, mouse; conditions: for Fluorescence: 96-well plate, AttoPhos 500 μM
# Experimental: as §2
# as §3, with “After washing with D-PBS, 150 μL 0.5 mM AttoPhos™ in 0.1 M Tris-citrate (0.1 M Tris-base, 0.1 M citric acid, pH 6.5 containing 0.25% Triton X-100) was added to each well and placed on an orbital shaker for 5 minutes as described for MUP. Plates” for “Plates”
# [7] = system: Molt-4 acid phosphatase; assay: Km of substrate for acid phosphatase, Molt-4; type: biochemical; conditions: Molt-4 suspension, human acute lymphoblastic leukemia; BBTP 1 mM, 1 h at RT
# Excerpt: as §1
# [8] = system: acid phosphatases; assay: Km of BBTP for acid phosphatases; type: biochemical; conditions: see EXAMPLES
# Excerpt: as §1
# [9] = system: HDMEC intracellular acid phosphatase; assay: acid phosphatase assay of HDMEC with AttoPhos/BBTP; type: biochemical, human; conditions: for Fluorescence: A/2 plate
# Experimental: as §2, §3
# [10] = system: 2008 acid phosphatase; assay: Km of substrate for acid phosphatase, 2008; type: biochemical; conditions: 2008 human ovarian carcinoma; BBTP 1 mM, 1 h at RT
# Excerpt: as §1
# [11] = system: T47-D acid phosphatase; assay: Km of substrate for acid phosphatase, T47-D; type: biochemical; conditions: T47-D human breast carcinoma; BBTP 1.5 mM, 1 h at RT
# Excerpt: as §1
smiles,measurement,setting,value
"O=P(O)(O)Oc1ccc2nc(-c3nc4ccccc4s3)sc2c1 [BBTP, 2'(2-benzothiazoyl)-6'-hydroxy-benzthiazole phosphate]",Km,[1],82 µM
same,Fluorescence,"[2]; 250 CHO-K1/well, AttoPhos 100 μM",552 ± 26 RFU
same,Fluorescence,"[2]; 250 CHO-K1/well, AttoPhos 250 μM",683 ± 36 RFU
same,Fluorescence,"[2]; 250 CHO-K1/well, AttoPhos 500 μM",721 ± 90 RFU
same,Fluorescence,"[2]; 500 CHO-K1/well, AttoPhos 100 μM",790 ± 70 RFU
same,Fluorescence,"[2]; 500 CHO-K1/well, AttoPhos 250 μM",1008 ± 21 RFU
same,Fluorescence,"[2]; 500 CHO-K1/well, AttoPhos 500 μM",1010 ± 126 RFU
same,Fluorescence,"[2]; 1,000 CHO-K1/well, AttoPhos 100 μM",1031 ± 138 RFU
same,Fluorescence,"[2]; 1,000 CHO-K1/well, AttoPhos 250 μM",1296 ± 64 RFU
same,Fluorescence,"[2]; 1,000 CHO-K1/well, AttoPhos 500 μM",1400 ± 47 RFU
same,Fluorescence,"[2]; 2,000 CHO-K1/well, AttoPhos 100 μM",2179 ± 156 RFU
same,Fluorescence,"[2]; 2,000 CHO-K1/well, AttoPhos 250 μM",2628 ± 148 RFU
same,Fluorescence,"[2]; 2,000 CHO-K1/well, AttoPhos 500 μM",2936 ± 382 RFU
same,Fluorescence,"[2]; 4,000 CHO-K1/well, AttoPhos 100 μM",3905 ± 234 RFU
same,Fluorescence,"[2]; 4,000 CHO-K1/well, AttoPhos 250 μM",4162 ± 122 RFU
same,Fluorescence,"[2]; 4,000 CHO-K1/well, AttoPhos 500 μM",4832 ± 357 RFU
same,Fluorescence,"[2]; 8,000 CHO-K1/well, AttoPhos 100 μM",7785 ± 684 RFU
same,Fluorescence,"[2]; 8,000 CHO-K1/well, AttoPhos 250 μM",8356 ± 237 RFU
same,Fluorescence,"[2]; 8,000 CHO-K1/well, AttoPhos 500 μM",9138 ± 440 RFU
same,Fluorescence,"[2]; 12,000 CHO-K1/well, AttoPhos 100 μM",12481 ± 462 RFU
same,Fluorescence,"[2]; 12,000 CHO-K1/well, AttoPhos 250 μM",12959 ± 124 RFU
same,Fluorescence,"[2]; 12,000 CHO-K1/well, AttoPhos 500 μM",12198 ± 83 RFU
same,Km,"[2]; CHO-K1 Chinese hamster ovary, BBTP 0.5 mM, 1 h at RT",172 µM
same,Km,[3],108 µM
same,Fluorescence,"[4]; 625 HUVEC/well, 96-well plate, AttoPhos 250 μM",1695 ± 65 RFU
same,Fluorescence,"[4]; 625 HUVEC/well, 96-well plate, AttoPhos 500 μM",1561 ± 39 RFU
same,Fluorescence,"[4]; 625 HUVEC/well, half area 96-well (A/2) plate, AttoPhos 250 μM",1867 ± 68 RFU
same,Fluorescence,"[4]; 625 HUVEC/well, half area 96-well (A/2) plate, AttoPhos 500 μM",2040 ± 55 RFU
same,Fluorescence,"[4]; 1,250 HUVEC/well, 96-well plate, AttoPhos 250 μM",2853 ± 180 RFU
same,Fluorescence,"[4]; 1,250 HUVEC/well, 96-well plate, AttoPhos 500 μM",2737 ± 106 RFU
same,Fluorescence,"[4]; 1,250 HUVEC/well, half area 96-well (A/2) plate, AttoPhos 250 μM",3438 ± 132 RFU
same,Fluorescence,"[4]; 1,250 HUVEC/well, half area 96-well (A/2) plate, AttoPhos 500 μM",3757 ± 132 RFU
same,Fluorescence,"[4]; 2,500 HUVEC/well, 96-well plate, AttoPhos 250 μM",5019 ± 188 RFU
same,Fluorescence,"[4]; 2,500 HUVEC/well, 96-well plate, AttoPhos 500 μM",5186 ± 125 RFU
same,Fluorescence,"[4]; 2,500 HUVEC/well, half area 96-well (A/2) plate, AttoPhos 250 μM",6664 ± 128 RFU
same,Fluorescence,"[4]; 2,500 HUVEC/well, half area 96-well (A/2) plate, AttoPhos 500 μM",7046 ± 240 RFU
same,Fluorescence,"[4]; 5,000 HUVEC/well, 96-well plate, AttoPhos 250 μM",10578 ± 119 RFU
same,Fluorescence,"[4]; 5,000 HUVEC/well, 96-well plate, AttoPhos 500 μM",10406 ± 498 RFU
same,Fluorescence,"[4]; 5,000 HUVEC/well, half area 96-well (A/2) plate, AttoPhos 250 μM",12807 ± 399 RFU
same,Fluorescence,"[4]; 5,000 HUVEC/well, half area 96-well (A/2) plate, AttoPhos 500 μM",14586 ± 498 RFU
same,Fluorescence,"[4]; 10,000 HUVEC/well, 96-well plate, AttoPhos 250 μM",20670 ± 967 RFU
same,Fluorescence,"[4]; 10,000 HUVEC/well, 96-well plate, AttoPhos 500 μM",21198 ± 240 RFU
same,Fluorescence,"[4]; 10,000 HUVEC/well, half area 96-well (A/2) plate, AttoPhos 250 μM",25684 ± 1488 RFU
same,Fluorescence,"[4]; 10,000 HUVEC/well, half area 96-well (A/2) plate, AttoPhos 500 μM",28302 ± 448 RFU
same,Fluorescence,"[4]; 20,000 HUVEC/well, 96-well plate, AttoPhos 250 μM",37889 ± 501 RFU
same,Fluorescence,"[4]; 20,000 HUVEC/well, 96-well plate, AttoPhos 500 μM",38528 ± 1540 RFU
same,Fluorescence,"[4]; 20,000 HUVEC/well, half area 96-well (A/2) plate, AttoPhos 250 μM",46409 ± 1009 RFU
same,Fluorescence,"[4]; 20,000 HUVEC/well, half area 96-well (A/2) plate, AttoPhos 500 μM",49706 ± 790 RFU
same,Km,"[4]; HUVEC, BBTP 0.5 mM, 1 h at RT",88 µM
same,Km,[5],~2 mM
same,Fluorescence,[6]; 250 3T3 cells/well,1866 ± 100 RFU
same,Fluorescence,[6]; 500 3T3 cells/well,3194 ± 172 RFU
same,Fluorescence,"[6]; 1,000 3T3 cells/well",6149 ± 176 RFU
same,Fluorescence,"[6]; 2,000 3T3 cells/well",10115 ± 840 RFU
same,Fluorescence,"[6]; 4,000 3T3 cells/well",21314 ± 1558 RFU
same,Fluorescence,"[6]; 8,000 3T3 cells/well",44831 ± 1793 RFU
same,Fluorescence,"[6]; 10,000 3T3 cells/well",49860 ± 556 RFU
same,Km,"[6]; NIH 3T3 mouse embryonic fibroblasts, BBTP 0.5 mM, 1, at RT",87 µM
same,Km,[7],130 µM
same,Km,[8],~100 µM
same,Fluorescence,"[9]; 50 HDMEC/well, AttoPhos 100 μM",829 ± 26 RFU
same,Fluorescence,"[9]; 50 HDMEC/well, AttoPhos 250 μM",1014 ± 80 RFU
same,Fluorescence,"[9]; 50 HDMEC/well, AttoPhos 500 μM",1496 ± 4.6 RFU
same,Fluorescence,"[9]; 100 HDMEC/well, AttoPhos 100 μM",1609 ± 157 RFU
same,Fluorescence,"[9]; 100 HDMEC/well, AttoPhos 250 μM",1545 ± 253 RFU
same,Fluorescence,"[9]; 100 HDMEC/well, AttoPhos 500 μM",2032 ± 97 RFU
same,Fluorescence,"[9]; 250 HDMEC/well, AttoPhos 100 μM",2347 ± 209 RFU
same,Fluorescence,"[9]; 250 HDMEC/well, AttoPhos 250 μM",2383 ± 24 RFU
same,Fluorescence,"[9]; 250 HDMEC/well, AttoPhos 500 μM",3686 ± 270 RFU
same,Fluorescence,"[9]; 500 HDMEC/well, AttoPhos 100 μM",3682 ± 263 RFU
same,Fluorescence,"[9]; 500 HDMEC/well, AttoPhos 250 μM",3998 ± 313 RFU
same,Fluorescence,"[9]; 500 HDMEC/well, AttoPhos 500 μM",6404 ± 665 RFU
same,Fluorescence,"[9]; 1,000 HDMEC/well, AttoPhos 100 μM",6653 ± 483 RFU
same,Fluorescence,"[9]; 1,000 HDMEC/well, AttoPhos 250 μM",7594 ± 411 RFU
same,Fluorescence,"[9]; 1,000 HDMEC/well, AttoPhos 500 μM",9822 ± 930 RFU
same,Fluorescence,"[9]; 2,500 HDMEC/well, AttoPhos 100 μM",15566 ± 167 RFU
same,Fluorescence,"[9]; 2,500 HDMEC/well, AttoPhos 250 μM",13382 ± 310 RFU
same,Fluorescence,"[9]; 2,500 HDMEC/well, AttoPhos 500 μM",20580 ± 436 RFU
same,Fluorescence,"[9]; 5,000 HDMEC/well, AttoPhos 100 μM",28018 ± 817 RFU
same,Fluorescence,"[9]; 5,000 HDMEC/well, AttoPhos 250 μM",25468 ± 843 RFU
same,Fluorescence,"[9]; 5,000 HDMEC/well, AttoPhos 500 μM",34112 ± 1797 RFU
same,Fluorescence,"[9]; 10,000 HDMEC/well, AttoPhos 100 μM",35787 ± 1325 RFU
same,Fluorescence,"[9]; 10,000 HDMEC/well, AttoPhos 250 μM",40725 ± 1850 RFU
same,Fluorescence,"[9]; 10,000 HDMEC/well, AttoPhos 500 μM",54430 ± 133 RFU
same,Km,"[9]; HDMEC, BBTP 1.5 mM, 1 h at RT, read-out: Km",80 µM
same,Km,"[9]; human dermal microvascular endothelial cells, read-out: apparent Km",~100 µM
same,Km,[10],106 µM
same,Km,[11],261 µM
